We go through 32 molecules from patent US11998539B2, “Substituted aminoquinolones as DGKalpha inhibitors for immune activation” (Bayer Aktiengesellschaft, priority 2019, dated 2024).

For orientation: IC50 means the midpoint of a concentration-inhibition curve.

For the experiment, the target named is DGKα (Homo sapiens (Human), UniProt P23743). Briefly: Human DGKα kinase activity inhibition assay (ADP-Glo). The experiment is classed as biochemical. To be noted: recombinant full-length human DGKα, 55 μM ATP, 7 μM 1,2-dioleoyl-sn-glycerol, read-out: IC50 values of examples in in vitro human DGKa kinase activity inhibition assays. In a few lines: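 Recombinant full-length human DGKα (C-terminal FLAG, from insect cells) phosphorylated 1,2-dioleoyl-sn-glycerol presented in octyl-glucopyranoside micelles. ADP formed was quantified by ADP-Glo luminescence. Compounds were added from 100-fold DMSO stocks.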
DGKα, sequence (P23743 other isoform, or with tags, fused parts or gaps): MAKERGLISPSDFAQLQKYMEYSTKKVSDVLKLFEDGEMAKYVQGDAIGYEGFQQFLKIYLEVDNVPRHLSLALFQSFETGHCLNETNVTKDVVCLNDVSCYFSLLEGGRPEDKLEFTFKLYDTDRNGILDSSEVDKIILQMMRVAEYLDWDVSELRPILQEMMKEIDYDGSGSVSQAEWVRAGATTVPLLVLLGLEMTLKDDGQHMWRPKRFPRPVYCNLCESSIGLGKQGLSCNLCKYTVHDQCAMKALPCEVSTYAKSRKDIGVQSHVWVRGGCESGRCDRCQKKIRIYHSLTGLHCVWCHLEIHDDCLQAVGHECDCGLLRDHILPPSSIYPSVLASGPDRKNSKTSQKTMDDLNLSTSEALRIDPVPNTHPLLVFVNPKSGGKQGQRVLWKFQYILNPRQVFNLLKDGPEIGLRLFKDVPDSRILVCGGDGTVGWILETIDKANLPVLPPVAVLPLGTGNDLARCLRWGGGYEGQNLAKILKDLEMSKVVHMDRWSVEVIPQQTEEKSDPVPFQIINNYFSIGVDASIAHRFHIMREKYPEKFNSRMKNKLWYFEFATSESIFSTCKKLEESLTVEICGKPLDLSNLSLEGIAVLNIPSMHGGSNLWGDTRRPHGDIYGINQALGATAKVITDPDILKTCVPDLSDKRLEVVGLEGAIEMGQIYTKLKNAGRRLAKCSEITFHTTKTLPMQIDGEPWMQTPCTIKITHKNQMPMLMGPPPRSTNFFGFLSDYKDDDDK
Background: ADP-Glo first removes unused ATP, then detects ADP through luciferase.
As for `Cc1cccc(-c2nnc(C3CCN(c4c(C(N)=O)c(=O)n(C)c5ccc(Br)cc45)CC3)o2)c1` [Example 526, 6-bromo-1-methyl-4-{4-[5-(3-methylphenyl)-1,3,4-oxadiazol-2-yl]piperidin-1-yl}-2-oxo-1,2-dihydroquinoline-3-carboxamide], the IC50 came to 27 nM.

For the molecule `Cn1c(=O)c(C#N)c(N2CCC(c3nc4ccccc4o3)CC2)c2cccc(Cl)c21` [Example 162, 4-[4-(1,3-benzoxazol-2-yl)piperidin-1-yl]-8-chloro-1-methyl-2-oxo-1,2-dihydroquinoline-3-carbonitrile], the IC50 came out at 134 nM.

`Cc1cc(C2(C)CCN(c3c(C#N)c(=O)n(C)c4ccccc34)CC2)nc2ccccc12` [Example 364, 1-methyl-4-[4-methyl-4-(4-methylquinolin-2-yl)piperidin-1-yl]-2-oxo-1,2-dihydroquinoline-3-carbonitrile]: the IC50 stood at 34 nM.

For the molecule `Cn1c(=O)c(C#N)c(N2CCC(c3nc4cc(F)ccc4o3)CC2)c2ccccc21` [Example 6, 4-[4-(5-fluoro-1,3-benzoxazol-2-yl)piperidin-1-yl]-1-methyl-2-oxo-1,2-dihydroquinoline-3-carbonitrile], the IC50 is 4.3 nM.

Turning to `COc1ccc2c(N3CCC(C)(c4nc5cc(C)ccc5o4)CC3)c(C#N)c(=O)n(C)c2c1` [Example 248, 7-methoxy-1-methyl-4-[4-methyl-4-(5-methyl-1,3-benzoxazol-2-yl)piperidin-1-yl]-2-oxo-1,2-dihydroquinoline-3-carbonitrile], the IC50 was 6.9 nM.

With `Cc1ccc2c(c1)c(N1CCC(c3nc4cc(C(C)C)ccc4o3)CC1)c(C#N)c(=O)n2C` [Example 186, 1,6-dimethyl-2-oxo-4-{4-[5-(propan-2-yl)-1,3-benzoxazol-2-yl]piperidin-1-yl}-1,2-dihydroquinoline-3-carbonitrile], the IC50 came out at 9.1 nM.

`Cn1c(=O)c(C#N)c(N2CCC(c3ccc(S(C)(=O)=O)cc3)CC2)c2ccccc21` [Example 65, 4-{4-[4-(methanesulfonyl)phenyl]piperidin-1-yl}-1-methyl-2-oxo-1,2-dihydroquinoline-3-carbonitrile]: the concentration for half-maximal inhibition (IC50) is 74 nM.

Consider `Cc1ccc2oc(C3CCN(c4c(C#N)c(=O)n(C)c5ccc(P(C)(C)=O)cc45)CC3)nc2c1` [Example 338, 6-(dimethylphosphoryl)-1-methyl-4-[4-(5-methyl-1,3-benzoxazol-2-yl)piperidin-1-yl]-2-oxo-1,2-dihydroquinoline-3-carbonitrile], for which the IC50 turned out to be 86 nM.

With `Cc1ccc2oc(C3CCN(c4c(C(N)=O)c(=O)n(C)c5cc(N(C)CC#N)ccc45)CC3)nc2c1` [Example 500, 7-[(cyanomethyl)(methyl)amino]-1-methyl-4-[4-(5-methyl-1,3-benzoxazol-2-yl)piperidin-1-yl]-2-oxo-1,2-dihydroquinoline-3-carboxamide], the half-maximal inhibitory concentration (IC50) is 0.7 nM.

With `CNC(=O)c1c(N2CCC(C)(c3nc4ccccc4o3)CC2)c2ccccc2n(C)c1=O` [Example 449, 4-[4-(1,3-benzoxazol-2-yl)-4-methylpiperidin-1-yl]-N,1-dimethyl-2-oxo-1,2-dihydroquinoline-3-carboxamide], the IC50 was 13 nM.

Take `COc1ccc(C2CCN(c3c(C(N)=O)c(=O)n(C)c4ccccc34)CC2)cc1` [Example 112, 4-[4-(4-methoxyphenyl)piperidin-1-yl]-1-methyl-2-oxo-1,2-dihydroquinoline-3-carboxamide]: the concentration for half-maximal inhibition (IC50) was 4.5 nM.

Take `Cn1c(=O)c(C#N)c(N2CCC(c3nc4ccccc4o3)CC2)c2cc(F)ccc21` [Example 206, 4-[4-(1,3-benzoxazol-2-yl)piperidin-1-yl]-6-fluoro-1-methyl-2-oxo-1,2-dihydroquinoline-3-carbonitrile]: the IC50 came to 0.8 nM.

As for `Cc1ccc2oc(C3(C)CCN(c4c(C(N)=O)c(=O)n(C)c5ccc(Br)cc45)CC3)nc2c1` [Example 203, 6-bromo-1-methyl-4-[4-methyl-4-(5-methyl-1,3-benzoxazol-2-yl)piperidin-1-yl]-2-oxo-1,2-dihydroquinoline-3-carboxamide], the IC50 turned out to be 0.9 nM.

On to `COc1ccc2oc(C3CCN(c4c(C(N)=O)c(=O)n(C)c5ccccc45)CC3)nc2c1` [Example 486, 4-[4-(5-methoxy-1,3-benzoxazol-2-yl)piperidin-1-yl]-1-methyl-2-oxo-1,2-dihydroquinoline-3-carboxamide], for which the IC50 came out at 5.6 nM.

Turning to `Cn1c(=O)c(C#N)c(N2CCC(c3cnc4ccccc4n3)CC2)c2ccccc21` [Example 321, 1-methyl-2-oxo-4-[4-(quinoxalin-2-yl)piperidin-1-yl]-1,2-dihydroquinoline-3-carbonitrile], the IC50 turned out to be 75 nM.

As to `COc1ccc2c(N3CCC(c4ccccc4)CC3)c(C#N)c(=O)n(C)c2c1` [Example 256, 7-methoxy-1-methyl-2-oxo-4-(4-phenylpiperidin-1-yl)-1,2-dihydroquinoline-3-carbonitrile], the IC50 amounted to 25 nM.

Consider `Cn1c(=O)c(C(N)=O)c(N2CCC(c3ccn(-c4cccc(Cl)c4)n3)CC2)c2ccccc21` [Example 474, 4-{4-[1-(3-chlorophenyl)-1H-pyrazol-3-yl]piperidin-1-yl}-1-methyl-2-oxo-1,2-dihydroquinoline-3-carboxamide], for which the IC50 came to 4.6 nM.

On to `COc1ccccc1C1(O)CCN(c2c(C#N)c(=O)n(C)c3ccccc23)CC1` [Example 331, 4-[4-hydroxy-4-(2-methoxyphenyl)piperidin-1-yl]-1-methyl-2-oxo-1,2-dihydroquinoline-3-carbonitrile], for which the IC50 came to 861 nM.

For `COCc1ccc2nc(C3(C)CCN(c4c(C(N)=O)c(=O)n(C)c5ccccc45)CC3)oc2c1` [Example 491, 4-{4-[6-(methoxymethyl)-1,3-benzoxazol-2-yl]-4-methylpiperidin-1-yl}-1-methyl-2-oxo-1,2-dihydroquinoline-3-carboxamide], the half-maximal inhibitory concentration (IC50) was 9.1 nM.

With `Cc1ccc2oc(C3CCN(c4c(C(N)=O)c(=O)n(C)c5cc(O)c(Br)cc45)CC3)nc2c1` [Example 511, 6-bromo-7-hydroxy-1-methyl-4-[4-(5-methyl-1,3-benzoxazol-2-yl)piperidin-1-yl]-2-oxo-1,2-dihydroquinoline-3-carboxamide], the concentration for half-maximal inhibition (IC50) was found to be 1.5 nM.

On to `Cn1c(=O)c(C#N)c(N2CCC(C)(c3cc4ccccc4s3)CC2)c2ccccc21` [Example 342, 4-[4-(1-benzothiophen-2-yl)-4-methylpiperidin-1-yl]-1-methyl-2-oxo-1,2-dihydroquinoline-3-carbonitrile], for which the IC50 amounted to 2.9 nM.

Regarding `Cc1ccc(-c2nnc(C3CCN(c4c(C#N)c(=O)n(C)c5ccccc45)CC3)o2)cc1` [Example 352, 1-methyl-4-{4-[5-(4-methylphenyl)-1,3,4-oxadiazol-2-yl]piperidin-1-yl}-2-oxo-1,2-dihydroquinoline-3-carbonitrile], the IC50 is 113 nM.

With `Cn1c(=O)c(C#N)c(N2CCC(c3ccn(-c4cccc(Cl)c4)n3)CC2)c2ccccc21` [Example 368, 4-{4-[1-(3-chlorophenyl)-1H-pyrazol-3-yl]piperidin-1-yl}-1-methyl-2-oxo-1,2-dihydroquinoline-3-carbonitrile], the half-maximal inhibitory concentration (IC50) is 13 nM.

Take `Cn1c(=O)c(C#N)c(N2CCC(C)(c3ccccc3)CC2)c2ccccc21` [Example 58, 1-methyl-4-(4-methyl-4-phenylpipehdin-1-yl)-2-oxo-1,2-dihydroquinoline-3-carbonitrile]: the IC50 was 2.6 nM.

On to `Cn1c(=O)c(C#N)c(N2CCC(C)(c3nc4ccccc4o3)CC2)c2cccc(Cl)c21` [Example 230, 4-[4-(1,3-benzoxazol-2-yl)-4-methylpiperidin-1-yl]-8-chloro-1-methyl-2-oxo-1,2-dihydroquinoline-3-carbonitrile], for which the IC50 came out at 83 nM.

As to `CC[C@H](C)c1ccc2c(N3CCC(C)(c4nc5cc(C)ccc5o4)CC3)c(C#N)c(=O)n(C)c2c1` [Example 266, 7-[(2S)-butan-2-yl]-1-methyl-4-[4-methyl-4-(5-methyl-1,3-benzoxazol-2-yl)piperidin-1-yl]-2-oxo-1,2-dihydroquinoline-3-carbonitrile], the IC50 turned out to be 53 nM.

Regarding `Cc1ccc2oc(C3CCN(c4c(C#N)c(=O)n(C)c5ccc(C(N)=O)cc45)CC3)nc2c1` [Example 404, 3-cyano-1-methyl-4-[4-(5-methyl-1,3-benzoxazol-2-yl)piperidin-1-yl]-2-oxo-1,2-dihydroquinoline-6-carboxamide], the half-inhibitory concentration (IC50) came out at 5.3 nM.

Turning to `COC1(c2cc3ccccc3s2)CCN(c2c(C#N)c(=O)n(C)c3ccccc23)CC1` [Example 341, 4-[4-(1-benzothiophen-2-yl)-4-methoxypiperidin-1-yl]-1-methyl-2-oxo-1,2-dihydroquinoline-3-carbonitrile], the IC50 was found to be 3.3 nM.

As for `Cc1ccc2oc(C3CCN(c4c(C#N)c(=O)n(C)c5ccc(S(C)(=O)=O)cc45)CC3)nc2c1` [Example 339, 6-(methanesulfonyl)-1-methyl-4-[4-(5-methyl-1,3-benzoxazol-2-yl)piperidin-1-yl]-2-oxo-1,2-dihydroquinoline-3-carbonitrile], the half-inhibitory concentration (IC50) was 67 nM.

Turning to `Cc1cccc(-c2nnc(C3CCN(c4c(C#N)c(=O)n(C)c5ccccc45)CC3)o2)c1` [Example 353, 1-methyl-4-{4-[5-(3-methylphenyl)-1,3,4-oxadiazol-2-yl]piperidin-1-yl}-2-oxo-1,2-dihydroquinoline-3-carbonitrile], the IC50 was 254 nM.

In the case of `Cc1ccc2c(c1)c(N1CCCC(c3nc4ccccc4o3)CC1)c(C#N)c(=O)n2C` (centres unmarked) [Example 204, 4-[4-(1,3-benzoxazol-2-yl)azepan-1-yl]-1,6-dimethyl-2-oxo-1,2-dihydroquinoline-3-carbonitrile], the IC50 stood at 7 nM.

As for `Cc1ccc2oc(C3CCN(c4c(C#N)c(=O)n(C)c5ccc(C6CCC6(C)C)cc45)CC3)nc2c1` (centres unmarked) [Example 410, 6-[2,2-dimethylcyclobutyl]-1-methyl-4-[4-(5-methyl-1,3-benzoxazol-2-yl)piperidin-1-yl]-2-oxo-1,2-dihydroquinoline-3-carbonitrile], the 50% inhibitory concentration (IC50) amounted to 51 nM.
